Measured values as given in US7112555B1, “Use of glycuronic polysaccharides and oligosaccharides as phytosanitary products and/or fertiliser” (Centre National de la Recherche Scientifique, priority 1999, dated 2006).

How the values were obtained:
1,4β-D-glucanase = 1,4β-D-glucanase response induced in protoplasts of Rubus; assay type: cell-based, Rubus fruticosus L.; conditions: elicitor 50 nM, 20 minutes, 2.10^6 protoplasts
Description: (§1) Experimental conditions: (1) preparation of protoplasts from cell suspensions of Rubus fruticosus L.; (2) incubation, or not, of n samples of 2.10^6 protoplasts in the presence of “elicitors” (1,4-D-glucuronan polymers and 1,4β-D-galacturonan (400 μg/L) polymers, 1,4β-D-glucuronan oligomers of average DP 8, 1,4β-D-mannuronan oligomers of DP 4, and 1,4β-D-guluronan oligomers of DP 4 (50 nM)); (3) after 20 minutes, the protoplasts whether may be treated or not, are subjected to enzymatic extraction. 2 μg of proteins are used per enzymatic test, and per incubation period. The viability of the protoplasts is maintained at 95% for an experimental period of 6 hours; the Evans blue viability test used verifies the integrity of the plasmalemma.
Experimental elicitation conditions: identical to those reported above.
Methodology: measurement of activity (1,4β-D-glucanase) is based on the calorimetric dosage (ferricyan test) described above of the substrate-reducing units (reduced cellopentaose) released during hydrolysis.

1,3β-D-glucanase = 1,3β-D-glucanase response induced in the protoplasts of Rubus; assay type: cell-based, Rubus fruticosus L.; conditions: for 1,3-β-D-glucanase activity (% control): elicitor 50 nM, 2.10^6 protoplasts
Description: as §1
Methodology: measurement of activity (1,3β-D-glucanase) is based on the calorimetric dosage (ferricyan test) of the substrate-reducing units (reduced hexamer from laminarin) released during hydrolysis. Based on the kinetics developed, curves are traced whose equations make it possible to calculate the speed of the enzymatic reaction. 2 kinetics, at least, are developed per sample, and per experimental “set”. In general, at least 8 kinematics from samples of 2 independent “sets” are developed.
Results: the enzymatic activation elicited in the protoplasts is expressed as a % of the activity in the controls.

[1] = tested on: xyloglucan endotransglycolase; assay: Xyloglucan endotransglycolase (XET) response induced in protoplasts of Rubus; assay type: cell-based; conditions: 50 nM, in 20 minutes
Description: Experimental elicitation conditions. 2.10^6 protoplasts in 1 ml Tris-HCl buffer (pH 4.8) are incubated in the presence, or not, of an elicitor (50 nM) or of a hormone (50 nM): mannuronan oligomer of DP4 or glucuronan oligomer of DP8 or gibberellin GA3. After 20, 40, 60, 100 and 120 minutes of interaction, the protoplasts are recovered by centrifugation, then subjected to enzymatic extraction.
Methodology: measurement of XET activity is carried out in the wells of microtitration plates in 4 stages. Stage 1: immobilization of the acceptor, i.e. the neoglycoprotein XXLG≈BSA. Stage 2: introduction of the reaction medium (XET enzymatic extraction (equivalent to 1 μg of proteins) substrate marked DIG, i.e. XG≈DIG in the Tris-HC1 buffer, pH=7, 25 mM). Stage 3: immunomarking according to the anti-DIG marked peroxydase sequence, anti-peroxydase marked peroxydase. Stage 4: dosage of the peroxydase activity in a citrate-phosphate buffer ([…], pH 5.5).
The peroxydase activity is measured at 492 nm. At least 3 curves of peroxydase activity are traced per experimental condition, and the experiments are carried out using 3 protoplast suspensions. The XET activity is measured by the slope (ΔA 492) of the curve deduced by linear regression from 9 peroxydase kinetics curves.

Molecule	1,3-β-D-glucanase activity (% control) (1,3β-D-glucanase; 20 minutes)	amplification factor of XET activity versus non-elicited protoplasts [1]	also measured
oligo 1,4-β-D-guluronan of DP 4 [e]	146	–	1,4β-D-glucanase activity (% control) (1,4β-D-glucanase): 101 % control; effectiveness of 1,3-β-D-glucanase induction among the other products tested (1,3β-D-glucanase; 50 nM, 20 minutes): most effective
C=C1C[C@]23C[C@@]1(O)CC[C@H]2[C@@]12C=C[C@H](O)[C@](C)(C(=O)O1)[C@H]2[C@@H]3C(=O)O [GA3, gibberellin GA3, reference compound]	–	1.12	–
glucuronan oligomer of DP8	–	1.62	–
1,4β-D-glucuronan polymer	–	–	amplification factor of 1,3-β-D-glucanase activity in plant protoplasts (1,3β-D-glucanase; nanomolar concentration, in 20 minutes): 1.3
oligo 1,4-β-D-mannuronan of DP 4	122	2.12	–
